Laboratory results reported in PMC2844520 (The AAPS journal, 2010).

T1: Monoacylglycerol lipase (MAGL) (Mus musculus, UniProt O35678)
T1 sequence (O35678 1-303): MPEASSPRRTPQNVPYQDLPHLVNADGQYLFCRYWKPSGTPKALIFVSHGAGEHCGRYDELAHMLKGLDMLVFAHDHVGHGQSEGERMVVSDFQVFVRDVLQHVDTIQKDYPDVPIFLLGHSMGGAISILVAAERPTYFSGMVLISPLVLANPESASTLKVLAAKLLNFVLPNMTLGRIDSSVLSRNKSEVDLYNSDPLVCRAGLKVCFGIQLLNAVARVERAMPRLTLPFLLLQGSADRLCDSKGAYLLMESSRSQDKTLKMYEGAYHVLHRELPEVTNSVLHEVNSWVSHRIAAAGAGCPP

B1: Monoacylglycerol lipase (MAGL) (Mus musculus) (protein)
chain: T1 sequence (O35678 1-303)

Assays:
[1] = biological target: T1, Monoacylglycerol lipase (MAGL); test: inhibition of 3H-2-OG hydrolysis in MAGL-transfected COS-7 lysate; type: biochemical
[2] = substrate: CCCCC/C=C\C/C=C\C/C=C\C/C=C\CCCC(=O)SCC(O)CO; type: biochemical, Mus musculus; settings: hydrolysis abolished by mutation of catalytic serine […] to alanine

Row | Molecule | IC50 [1] [nM] | Km [2] [µM]
1 | CCCCC/C=C\C/C=C\C/C=C\C/C=C\CCCCN1C(=O)C=CC1=O [NAM, N-arachidonyl maleimide] | 45.7 | 
2 | B1 |  | 67.9
